Reference: patent US20250382305A1 (PTC THERAPEUTICS, INC., priority 2022, published 2025)

Legend:
[1] = test system: Total ATXN3 (tATXN3) protein; experiment: Endogenous Total ATXN3 (tATXN3) Protein Assay (MSD immunoassay of cell lysates); format: cell-based; conditions: average IC50, total ATXN3 protein in cell lysate after 48 h with compound (Table 1)
Procedure, shortened: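 Cells in DMEM/10% FBS were plated at 10,000 per well onto 7-point, 3.16-fold compound dilutions in duplicate for 48 h at 37° C, then lysed. Total ATXN3 in lysates was measured by MSD sandwich immunoassay: mouse anti-ATXN3 capture, rabbit anti-ATXN3 detection, SULFO-TAG anti-rabbit. Average IC50 was reported in star bins.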

ATXN3 pre-mRNA = experiment: RT-qPCR Assay to Quantify Exon 4 Skipping in ATXN3 pre-mRNA in Cells; format: cell-based; conditions: percent exon 4 skipping in ATXN3 pre-mRNA, RT-qPCR of cell lysates; average IC50
Procedure, shortened: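 Cells plated at 10,000/well onto a 7-point, 3.16-fold DMSO dilution series (duplicates), incubated 24 h at 37 °C, then lysed. Exon 4 skipping measured by one-step RT-qPCR (48 °C RT, 40 cycles); IC50 interpolated from dose-response fit of percent skipping.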

IC50 [1] | IC50 (ATXN3 pre-mRNA) | Molecule
≤ 0.03 µM | ≤ 0.03 µM | N[C@@H]1CC=CC[C@H]1c1c(Cl)c2nc(Cl)cc(NCc3ccccc3)c2n1C(F)F [Compound 417, 2-((1R,6R)-6-aminocyclohex-3-en-1-yl)-N-benzyl-3,5-dichloro-1-(difluoromethyl)-1H-pyrrolo[3,2-b]pyridin-7-amine]
0.03 to 0.3 µM | 0.03 to 0.3 µM | Cc1c([C@@]2(F)CCCC[C@@H]2N)sc2c(NCc3ccco3)cc(Cl)nc12 [Compound 41, 2-((1R,2S)-2-amino-1-fluorocyclohexyl)-5-chloro-N-(furan-2-ylmethyl)-3-methylthieno[3,2-b]pyridin-7-amine]
≤ 0.03 µM | ≤ 0.03 µM | N[C@H]1CCCO[C@@H]1c1c(I)c2nc(Cl)nc(NCc3ccco3)c2n1C(F)F [Compound 225, 6-((2S,3S)-3-aminotetrahydro-2H-pyran-2-yl)-2-chloro-5-(difluoromethyl)-N-(furan-2-ylmethyl)-7-iodo-5H-pyrrolo[3,2-d]pyrimidin-4-amine]
0.03 to 0.3 µM | 0.03 to 0.3 µM | N[C@@H]1CC=CC[C@H]1c1sc2c(NCc3ccccc3)cc(Cl)nc2c1Cl [Compound 404, 2-((1R,6R)-6-aminocyclohex-3-en-1-yl)-N-benzyl-3,5-dichlorothieno[3,2-b]pyridin-7-amine]
0.03 to 0.3 µM | 0.03 to 0.3 µM | N[C@H]1CC=CC[C@@H]1c1c(Cl)c2nc(Cl)cc(NCc3ccccc3)c2n1C(F)F [Compound 420, 2-((1S,6S)-6-aminocyclohex-3-en-1-yl)-N-benzyl-3,5-dichloro-1-(difluoromethyl)-1H-pyrrolo[3,2-b]pyridin-7-amine]
> 1 µM | > 1 µM | N[C@@H]1CCCO[C@H]1c1sc2c(NCc3cccs3)cc(Cl)nc2c1Cl [Compound 16, 2-((2R,3R)-3-aminotetrahydro-2H-pyran-2-yl)-3,5-dichloro-N-(thiophen-2-ylmethyl)thieno[3,2-b]pyridin-7-amine]
≤ 0.03 µM | ≤ 0.03 µM | N[C@H]1CC=CC[C@@H]1c1sc2c(NCc3ccco3)nc(Cl)nc2c1Br [Compound 168, 6-((1S,6S)-6-aminocyclohex-3-en-1-yl)-7-bromo-2-chloro-N-(furan-2-ylmethyl)thieno[3,2-d]pyrimidin-4-amine]
> 1 µM | > 1 µM | Cc1c([C@@H]2OCCC[C@H]2N)sc2c(NCc3ccco3)cc(Cl)nc12 [Compound 134, ((2R,3R)-3-aminotetrahydro-2H-pyran-2-yl)-5-chloro-N-(furan-2-ylmethyl)-3-methylthieno[3,2-b]pyridin-7-amine]
0.03 to 0.3 µM | 0.03 to 0.3 µM | N[C@H]1CC=CC[C@@H]1c1c(I)c2nc(Cl)nc(NCc3ccco3)c2n1C(F)F [Compound 276, 6-((1S,6S)-6-aminocyclohex-3-en-1-yl)-2-chloro-5-(difluoromethyl)-N-(furan-2-ylmethyl)-7-iodo-5H-pyrrolo[3,2-d]pyrimidin-4-amine]
0.3 to 1 µM | 0.03 to 0.3 µM | N[C@H]1CCCC[C@]1(F)c1sc2c(NCc3ccccc3)cc(Cl)nc2c1Br [Compound 37, 2-((1R,2S)-2-amino-1-fluorocyclohexyl)-N-benzyl-3-bromo-5-chlorothieno[3,2-b]pyridin-7-amine]

The next lines start with the molecule.

Molecule | IC50 [1] | IC50 (ATXN3 pre-mRNA)
N[C@H]1CCCC[C@H]1c1cc2nc(Cl)cc(NCc3cccs3)c2s1 [Compound 22, 2-((1R,2S)-2-aminocyclohexyl)-5-chloro-N-(thiophen-2-ylmethyl)thieno[3,2-b]pyridin-7-amine] | 0.3 to 1 µM | 0.3 to 1 µM
CC#CCNc1cc(Cl)nc2c(Br)c([C@@H]3CCCC[C@H]3N)sc12 [Compound 428, 2-((1R,2R)-2-aminocyclohexyl)-3-bromo-N-(but-2-yn-1-yl)-5-chlorothieno[3,2-b]pyridin-7-amine] | 0.3 to 1 µM | 0.3 to 1 µM
2-((3R,4S)-4-aminotetrahydro-2H-pyran-3-yl)-3-bromo-5-chloro-N-(thiophen-2-ylmethyl)thieno[3,2-b]pyridin-7-amine and 2-((3S,4R)-4-aminotetrahydro-2H-pyran-3-yl)-3-bromo-5-chloro-N-(thiophen-2-ylmethyl)thieno[3,2-b]pyridin-7-amine [Compound 204] | ≤ 0.03 µM | ≤ 0.03 µM
N[C@H]1CCCN(c2ccccc2)[C@@H]1c1sc2c(NCc3cccs3)cc(Cl)nc2c1Br (mixture of isomers) [Compound 124, 2-((2R,3R)-3-amino-1-phenylpiperidin-2-yl)-3-bromo-5-chloro-N-(thiophen-2-ylmethyl)thieno[3,2-b]pyridin-7-amine and 2-((2S,3S)-3-amino-1-phenylpiperidin-2-yl)-3-bromo-5-chloro-N-(thiophen-2-ylmethyl)thieno[3,2-b]pyridin-7-amine] | > 1 µM | > 1 µM
CCOC(=O)C1=CC[C@H](c2sc3c(NCc4cccs4)cc(Cl)nc3c2C)[C@@H](N)C1 [Compound 277, ethyl (4S,5S)-5-amino-4-(5-chloro-3-methyl-7-((thiophen-2-ylmethyl)amino)thieno[3,2-b]pyridin-2-yl)cyclohex-1-ene-1-carboxylate] | 0.03 to 0.3 µM | ≤ 0.03 µM
N[C@@H]1CCCC(F)(F)[C@H]1c1sc2c(NCc3cccs3)cc(Cl)nc2c1Cl [Compound 409, 2-((1S,6R)-6-amino-2,2-difluorocyclohexyl)-3,5-dichloro-N-(thiophen-2-ylmethyl)thieno[3,2-b]pyridin-7-amine] | 0.03 to 0.3 µM | 0.03 to 0.3 µM
N[C@H]1CCC[C@@H]1c1sc2c(NCc3ccco3)cc(Cl)nc2c1Cl [Compound 117, 2-((1S,2S)-2-aminocyclopentyl)-3,5-dichloro-N-(furan-2-ylmethyl)thieno[3,2-b]pyridin-7-amine] | ≤ 0.03 µM | ≤ 0.03 µM
CC#CCNc1cc(Cl)nc2c(Br)c([C@@H]3CC=CC[C@H]3N)sc12 [Compound 429, 2-((1R,6R)-6-aminocyclohex-3-en-1-yl)-3-bromo-N-(but-2-yn-1-yl)-5-chlorothieno[3,2-b]pyridin-7-amine] | ≤ 0.03 µM | ≤ 0.03 µM
2-((2R,3R)-3-aminotetrahydro-2H-pyran-2-yl)-3-bromo-5-chloro-1-(difluoromethyl)-N-(thiophen-2-ylmethyl)-1H-pyrrolo[3,2-b]pyridin-7-amine and 2-((2S,3S)-3-aminotetrahydro-2H-pyran-2-yl)-3-bromo-5-chloro-1-(difluoromethyl)-N-(thiophen-2-ylmethyl)-1H-pyrrolo[3,2-b]pyridin-7-amine [Compound 224] | ≤ 0.03 µM | ≤ 0.03 µM
N[C@@H]1CCCC[C@H]1c1cc2nc(Cl)cc(NCc3cccs3)c2s1 [Compound 23, 2-((1R,2R)-2-aminocyclohexyl)-5-chloro-N-(thiophen-2-ylmethyl)thieno[3,2-b]pyridin-7-amine] | > 1 µM | > 1 µM
N[C@@H]1CCCO[C@H]1c1sc2c(NCc3ccco3)nc(Cl)nc2c1Br (single isomer, unassigned) [Compound 42, 6-((2R,3R)-3-aminotetrahydro-2H-pyran-2-yl)-7-bromo-2-chloro-N-(furan-2-ylmethyl)thieno[3,2-d]pyrimidin-4-amine or 6-((2S,3S)-3-aminotetrahydro-2H-pyran-2-yl)-7-bromo-2-chloro-N-(furan-2-ylmethyl)thieno[3,2-d]pyrimidin-4-amine] | 0.3 to 1 µM | 0.3 to 1 µM
N[C@H]1CC=CC[C@@H]1c1sc2c(NCc3ccccc3)cc(Cl)nc2c1Br [Compound 194, 2-((1S,6S)-6-aminocyclohex-3-en-1-yl)-N-benzyl-3-bromo-5-chlorothieno[3,2-b]pyridin-7-amine] | ≤ 0.03 µM | ≤ 0.03 µM
2-((3R,4S)-3-aminotetrahydro-2H-pyran-4-yl)-N-benzyl-3,5-dichlorothieno[3,2-b]pyridin-7-amine and 2-((3S,4R)-3-aminotetrahydro-2H-pyran-4-yl)-N-benzyl-3,5-dichlorothieno[3,2-b]pyridin-7-amine [Compound 388] | 0.03 to 0.3 µM | 0.03 to 0.3 µM
N[C@@H]1CC=CC[C@H]1c1sc2c(NCc3ccncc3)cc(Cl)nc2c1Cl [Compound 433, 2-((1R,6R)-6-aminocyclohex-3-en-1-yl)-3,5-dichloro-N-(pyridin-4-ylmethyl)thieno[3,2-b]pyridin-7-amine] | 0.03 to 0.3 µM | 0.03 to 0.3 µM
C/C=C/CNc1cc(Cl)nc2c(Br)c([C@@H]3CC=CC[C@H]3N)sc12.C/C=C/CNc1cc(Cl)nc2c(Br)c([C@H]3CC=CC[C@@H]3N)sc12 (mixture of isomers) [Compound 300, 2-((1R,6R)-6-aminocyclohex-3-en-1-yl)-3-bromo-N-((E)-but-2-en-1-yl)-5-chlorothieno[3,2-b]pyridin-7-amine and 2-((1S,6S)-6-aminocyclohex-3-en-1-yl)-3-bromo-N-((E)-but-2-en-1-yl)-5-chlorothieno[3,2-b]pyridin-7-amine] | 0.03 to 0.3 µM | 0.03 to 0.3 µM
CC#CCNc1cc(Cl)nc2c(C)c([C@H]3CCCC[C@@H]3N)sc12 [Compound 363, 2-((1S,2S)-2-aminocyclohexyl)-N-(but-2-yn-1-yl)-5-chloro-3-methylthieno[3,2-b]pyridin-7-amine] | 0.03 to 0.3 µM | 0.03 to 0.3 µM
Cc1c([C@H]2OCCC[C@@H]2N)sc2c(NCc3ccccc3F)cc(Cl)nc12 [Compound 33, 2-((2S,3S)-3-aminotetrahydro-2H-pyran-2-yl)-5-chloro-N-(2-fluorobenzyl)-3-methylthieno[3,2-b]pyridin-7-amine] | 0.03 to 0.3 µM | 0.03 to 0.3 µM
N[C@H]1CCCCCC[C@H]1c1cc2nc(Cl)cc(NCc3cccs3)c2s1 [Compound 104, 2-((1R,2S)-2-aminocyclooctyl)-5-chloro-N-(thiophen-2-ylmethyl)thieno[3,2-b]pyridin-7-amine] | > 1 µM | > 1 µM
